{"source": "patent US20260062437A1", "about": "“ANTIVIRAL COMPOUNDS” (priority 2022, published 2026)", "key": {"Vero cells": {"system": "Vero cells", "assay": "Cytotoxicity assay (Alamar blue) in Vero cells", "type": "cell-based", "settings": "for cytotoxicity / change in cell viability: after 2 or 5 days; for decrease in cell viability: after 5 days (HLB-0532246: at high concentrations); for change in cell viability: over/after 5 days", "experimental": "(§1) HUH7 and Vero cell lines were maintained in a humidified 5% CO2 environment at 37° C. HUH7 cells were cultured in DMEM (4500 mg/L “high glucose”+L-glutamine+25 mM HEPES-sodium pyruvate) supplemented with fetal bovine serum (10% FBS), penicillin (100 IU/mL), streptomycin ([…]), and 1% nonessential amino acids (NEAA). Vero cells were cultured in EMEM media supplemented with FBS (10% FBS), penicillin (100 IU/mL), and streptomycin (100 μg/mL). Cytotoxicity assays were done similarly to a previous report (J. Med. Chem. 2021, 64, 15429-15439). HUH7 or Vero cells were seeded at 2,000 cells/well in their appropriate cell culture media (50 μL) in 96-well clear plates and incubated for 24 hours. A DMSO solution of each individual compound was serially diluted (solution concentrations of 0.1, 0.5 and 1.0 mM were made) in the appropriate cell line media, and each solution (50 μL) was dosed to the cells (well volume total of 100 μL; final DMSO concentration of 0.5%). DMSO-only and no-cell control wells were dosed with a DMSO-media solution (50 μL of 1% DMSO in media) rather than compound. The cells were then incubated for 2 or 5 days. Two hours before the designated time point, Alamar blue (10 μL) was added to each well. At the time point, fluorescence data were measured using a BioTek Synergy H1 microplate reader. Cell viability was calculated by subtracting background fluorescence (no-cell control) from the measured fluorescence of each well. Wells with compounds were normalized to the DMSO-only control (100% viability) and no-cell controls. Each individual experiment was performed in groups of three technical replicates. For the reported Vero studies, cytotoxicity experiments were repeated in biological triplicate. The final cell viability percentage was calculated by averaging % viability from each of the biological replicates, and the uncertainty was calculated by propagating the standard deviations from each biological replicate (taking the square root of the sum of the squares of individual standard deviations)."}, "HUH7 cells": {"system": "HUH7 cells", "assay": "Cytotoxicity assay (Alamar blue) in HUH7 cells", "type": "cell-based", "settings": "for change in cell viability: over/after 5 days; for decrease in cell viability: after 5 days (HLB-0532246: at high concentrations); for cytotoxicity / change in cell viability: after 2 or 5 days", "experimental": "as §1"}, "West Nile Virus": {"system": "West Nile Virus", "assay": "Antiviral plaque assay with West Nile Virus", "type": "cell-based"}, "ZIKV [1]": {"system": "ZIKV", "assay": "Antiviral testing against ZIKV", "type": "cell-based, Zika Virus"}, "ZIKV [2]": {"system": "ZIKV", "settings": "cited from earlier work; for antiviral activity against ZIKV: previously tested"}, "WNV": {"system": "WNV", "settings": "previously tested, cited from earlier work"}, "[3]": {"target": "polymerase of dengue (DENV) (Dengue virus type 2, UniProt P29990)", "sequence (P29990 2492-3391)": "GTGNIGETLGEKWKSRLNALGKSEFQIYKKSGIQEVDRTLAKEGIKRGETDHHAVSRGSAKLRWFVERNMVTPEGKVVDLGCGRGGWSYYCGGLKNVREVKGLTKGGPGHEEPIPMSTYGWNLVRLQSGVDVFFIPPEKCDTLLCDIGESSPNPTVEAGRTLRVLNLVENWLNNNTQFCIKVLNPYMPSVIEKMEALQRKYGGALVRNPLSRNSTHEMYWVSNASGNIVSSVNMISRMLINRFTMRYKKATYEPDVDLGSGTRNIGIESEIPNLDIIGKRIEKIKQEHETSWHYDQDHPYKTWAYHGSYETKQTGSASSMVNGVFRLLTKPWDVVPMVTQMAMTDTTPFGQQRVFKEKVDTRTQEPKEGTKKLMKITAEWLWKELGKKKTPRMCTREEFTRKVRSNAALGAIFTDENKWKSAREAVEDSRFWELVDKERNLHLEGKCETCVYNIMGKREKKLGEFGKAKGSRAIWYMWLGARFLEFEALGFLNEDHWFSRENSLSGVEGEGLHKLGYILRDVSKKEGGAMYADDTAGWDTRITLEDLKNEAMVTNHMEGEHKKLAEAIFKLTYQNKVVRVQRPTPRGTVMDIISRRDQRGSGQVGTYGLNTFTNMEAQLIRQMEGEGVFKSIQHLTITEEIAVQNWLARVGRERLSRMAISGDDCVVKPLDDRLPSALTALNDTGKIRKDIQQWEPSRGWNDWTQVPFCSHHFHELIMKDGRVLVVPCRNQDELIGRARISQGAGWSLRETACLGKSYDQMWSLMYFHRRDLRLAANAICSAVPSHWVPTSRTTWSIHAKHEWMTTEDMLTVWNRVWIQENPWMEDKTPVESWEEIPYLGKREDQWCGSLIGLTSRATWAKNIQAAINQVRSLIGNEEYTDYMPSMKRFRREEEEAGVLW", "settings": "cited from earlier work"}, "polymerase of WNV": {"target": "polymerase of WNV (West Nile virus, UniProt P06935)", "sequence (P06935 2526-3430)": "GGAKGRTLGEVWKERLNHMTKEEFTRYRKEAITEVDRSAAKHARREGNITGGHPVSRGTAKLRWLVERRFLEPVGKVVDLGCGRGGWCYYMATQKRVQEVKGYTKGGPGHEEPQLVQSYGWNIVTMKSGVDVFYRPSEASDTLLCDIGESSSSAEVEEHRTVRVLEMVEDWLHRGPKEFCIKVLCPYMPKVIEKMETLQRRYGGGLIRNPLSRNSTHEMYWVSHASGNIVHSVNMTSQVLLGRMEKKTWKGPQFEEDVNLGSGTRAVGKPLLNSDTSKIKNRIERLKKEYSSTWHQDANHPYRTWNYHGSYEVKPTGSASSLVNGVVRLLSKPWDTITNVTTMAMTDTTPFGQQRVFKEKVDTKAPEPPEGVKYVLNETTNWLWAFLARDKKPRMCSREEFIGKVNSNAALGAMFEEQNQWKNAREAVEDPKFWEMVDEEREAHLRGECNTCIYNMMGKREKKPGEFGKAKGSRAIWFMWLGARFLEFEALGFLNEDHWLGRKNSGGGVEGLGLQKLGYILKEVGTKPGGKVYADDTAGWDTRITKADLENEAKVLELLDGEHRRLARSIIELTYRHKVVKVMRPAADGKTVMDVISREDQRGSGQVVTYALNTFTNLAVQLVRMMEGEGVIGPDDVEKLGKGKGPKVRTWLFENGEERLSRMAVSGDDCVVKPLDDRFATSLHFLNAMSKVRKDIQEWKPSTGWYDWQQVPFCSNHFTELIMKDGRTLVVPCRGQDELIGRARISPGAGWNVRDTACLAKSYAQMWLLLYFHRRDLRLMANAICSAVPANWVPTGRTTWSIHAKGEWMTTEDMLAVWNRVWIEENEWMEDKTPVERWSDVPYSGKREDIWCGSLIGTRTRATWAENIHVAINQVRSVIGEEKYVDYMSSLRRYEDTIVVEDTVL", "settings": "cited from earlier work"}, "polymerase of ZIKV": {"target": "polymerase of ZIKV (Zika virus, UniProt Q32ZE1)", "sequence (Q32ZE1 2517-3419)": "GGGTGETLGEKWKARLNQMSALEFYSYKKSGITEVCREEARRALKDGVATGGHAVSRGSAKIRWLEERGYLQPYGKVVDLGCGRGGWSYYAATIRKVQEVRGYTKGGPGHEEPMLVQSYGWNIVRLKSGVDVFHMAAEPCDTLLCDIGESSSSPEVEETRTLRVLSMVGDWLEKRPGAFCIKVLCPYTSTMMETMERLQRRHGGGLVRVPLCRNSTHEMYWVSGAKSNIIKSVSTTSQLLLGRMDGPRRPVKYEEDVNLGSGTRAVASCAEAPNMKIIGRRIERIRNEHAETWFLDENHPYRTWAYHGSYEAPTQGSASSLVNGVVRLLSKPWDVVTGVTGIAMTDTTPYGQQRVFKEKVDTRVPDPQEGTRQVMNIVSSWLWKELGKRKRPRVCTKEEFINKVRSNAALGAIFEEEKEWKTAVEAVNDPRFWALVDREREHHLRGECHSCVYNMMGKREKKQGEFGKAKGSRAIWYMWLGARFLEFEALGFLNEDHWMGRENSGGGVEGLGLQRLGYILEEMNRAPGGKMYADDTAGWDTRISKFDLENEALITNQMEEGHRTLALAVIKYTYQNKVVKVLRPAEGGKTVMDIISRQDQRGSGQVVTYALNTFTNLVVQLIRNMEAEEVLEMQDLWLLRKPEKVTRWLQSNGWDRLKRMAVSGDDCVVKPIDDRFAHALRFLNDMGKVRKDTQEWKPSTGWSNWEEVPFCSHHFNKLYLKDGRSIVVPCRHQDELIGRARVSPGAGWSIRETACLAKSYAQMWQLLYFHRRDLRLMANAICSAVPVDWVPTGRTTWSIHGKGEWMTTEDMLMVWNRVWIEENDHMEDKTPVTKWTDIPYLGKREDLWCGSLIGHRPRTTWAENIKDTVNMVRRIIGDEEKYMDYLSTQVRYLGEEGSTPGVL", "settings": "cited from earlier work"}, "[4]": {"target": "polymerase of hepatitis C (HCV) (Hepatitis C virus genotype 1a, UniProt P27958)", "sequence (P27958 2421-3011 limits assumed)": "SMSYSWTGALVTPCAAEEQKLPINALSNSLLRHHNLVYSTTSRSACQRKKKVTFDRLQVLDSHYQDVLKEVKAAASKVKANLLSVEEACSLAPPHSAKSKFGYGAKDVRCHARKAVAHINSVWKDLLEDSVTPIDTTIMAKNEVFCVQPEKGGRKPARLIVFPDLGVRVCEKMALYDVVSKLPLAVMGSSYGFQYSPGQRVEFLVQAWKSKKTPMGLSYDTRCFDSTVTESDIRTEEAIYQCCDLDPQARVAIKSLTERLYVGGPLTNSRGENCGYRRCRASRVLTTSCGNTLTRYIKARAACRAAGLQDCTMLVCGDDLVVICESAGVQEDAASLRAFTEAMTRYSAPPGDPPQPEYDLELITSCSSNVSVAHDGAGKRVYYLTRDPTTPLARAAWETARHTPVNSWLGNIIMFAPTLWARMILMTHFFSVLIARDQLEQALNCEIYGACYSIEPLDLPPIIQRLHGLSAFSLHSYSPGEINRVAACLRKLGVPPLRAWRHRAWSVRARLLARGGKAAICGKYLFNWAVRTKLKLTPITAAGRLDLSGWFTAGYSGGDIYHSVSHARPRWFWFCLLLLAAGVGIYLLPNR", "settings": "cited from earlier work"}, "polymerase of polio (PV)": {"target": "polymerase of polio (PV) (Poliovirus type 1, UniProt P03300)", "sequence (P03300 1749-2209 limits assumed)": "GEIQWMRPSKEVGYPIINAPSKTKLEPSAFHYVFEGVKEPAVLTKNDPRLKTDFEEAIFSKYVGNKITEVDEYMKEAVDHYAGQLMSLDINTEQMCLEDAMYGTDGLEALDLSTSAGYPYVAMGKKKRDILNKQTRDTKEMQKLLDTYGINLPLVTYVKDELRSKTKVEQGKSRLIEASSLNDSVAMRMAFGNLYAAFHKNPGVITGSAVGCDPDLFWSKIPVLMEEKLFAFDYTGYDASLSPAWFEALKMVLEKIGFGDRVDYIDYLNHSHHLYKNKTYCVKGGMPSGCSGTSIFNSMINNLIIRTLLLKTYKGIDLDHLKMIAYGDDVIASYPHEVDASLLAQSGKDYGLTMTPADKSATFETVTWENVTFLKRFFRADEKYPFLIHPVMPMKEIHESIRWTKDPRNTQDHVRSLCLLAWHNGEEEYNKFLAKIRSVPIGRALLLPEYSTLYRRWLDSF", "settings": "cited from earlier work"}, "polymerase of SARS-CoV-2": {"target": "polymerase of SARS-CoV-2 (Severe acute respiratory syndrome coronavirus 2, UniProt P0DTD1)", "settings": "cited from earlier work"}}, "note": "Entries after “also recorded” stand apart in the source; their conditions may differ. Read-outs that look alike come from different tables or passages of the source.", "data": [{"smiles": "Cc1cn([C@@H]2OC(CO[P@@](=O)(N[C@@H](C)C(=O)OC(C)C)Oc3ccccc3)=C[C@@H]2O)c(=O)[nH]c1=O", "note": "[HLB-0535065]", "values": [{"measurement": "cytotoxicity / change in cell viability", "setting": "Vero cells", "result": "did not show any cytotoxicity"}, {"measurement": "cell viability", "setting": "HUH7 cells; by day 5", "result": 50, "unit": "%"}, {"measurement": "antiviral activity against West Nile Virus", "setting": "West Nile Virus", "result": "no activity"}, {"measurement": "antiviral activity against ZIKV", "setting": "ZIKV [1]", "result": "no activity"}]}, {"smiles": "Cc1cn([C@@H]2OC(CO)=C[C@@H]2O)c(=O)[nH]c1=O", "note": "[HLB-0535066]", "values": [{"measurement": "cytotoxicity / change in cell viability", "setting": "Vero cells", "result": "did not show any cytotoxicity"}, {"measurement": "change in cell viability", "setting": "HUH7 cells", "result": "remained unchanged"}, {"measurement": "antiviral activity against West Nile Virus", "setting": "West Nile Virus", "result": "no activity"}, {"measurement": "antiviral activity against ZIKV", "setting": "ZIKV [1]", "result": "no activity"}]}, {"smiles": "Nc1ccn([C@@H]2OC(CO)=C[C@@H]2O)c(=O)n1", "note": "[HLB-0532246, reference compound]", "values": [{"measurement": "decrease in cell viability", "setting": "Vero cells", "result": 10, "unit": "%"}, {"measurement": "decrease in cell viability", "setting": "HUH7 cells", "result": 10, "unit": "%"}, {"measurement": "antiviral activity against ZIKV", "setting": "ZIKV [2]; Vero cells", "result": "demonstrated antiviral activity"}, {"measurement": "antiviral activity against WNV", "setting": "WNV; cell line not stated", "result": "inactive"}]}, {"smiles": "Nc1nc2c(ncn2[C@@H]2OC(CO)=C[C@@H]2O)c(=O)[nH]1", "note": "[HLB-0535072]", "values": [{"measurement": "cytotoxicity / change in cell viability", "setting": "Vero cells", "result": "No significant change in cell viability"}, {"measurement": "change in cell viability", "setting": "HUH7 cells", "result": "slight decrease in cell viability"}, {"measurement": "antiviral activity against West Nile Virus", "setting": "West Nile Virus", "result": "no activity"}, {"measurement": "antiviral activity against ZIKV", "setting": "ZIKV [1]", "result": "Antiviral activity was observed"}]}, {"smiles": "Nc1ccn([C@@H]2OC(CO)=C[C@H]2O)c(=O)n1", "note": "[3′-deoxy-3′,4′-didehydro-cytidine]", "values": [{"measurement": "ZIKV inhibitory activity", "setting": "ZIKV [2]; cellular studies (Gizzi et al., Nature 2018)", "result": "only weak ZIKV inhibitory activity"}]}, {"smiles": "CC(C)OC(=O)[C@H](C)N[P@](=O)(OCC1=C[C@H](O)[C@H](n2cnc3c(=O)[nH]c(N)nc32)O1)Oc1ccccc1", "note": "[HLB-0535073]", "values": [{"measurement": "cytotoxicity / change in cell viability", "setting": "Vero cells", "result": "No significant change in cell viability"}, {"measurement": "cytotoxicity / change in cell viability", "setting": "HUH7 cells", "result": "No significant change in cell viability"}, {"measurement": "antiviral activity against West Nile Virus", "setting": "West Nile Virus", "result": "no activity"}, {"measurement": "antiviral activity against ZIKV", "setting": "ZIKV [1]", "result": "Antiviral activity was observed"}]}, {"smiles": "O=c1ccn([C@@H]2OC(CO)=C[C@@H]2O)c(=O)[nH]1", "note": "[HLB-0535069]", "values": [{"measurement": "change in cell viability", "setting": "Vero cells", "result": "did not show a significant decrease in cell viability"}, {"measurement": "change in cell viability", "setting": "HUH7 cells", "result": "did not show a significant decrease in cell viability"}, {"measurement": "antiviral activity against West Nile Virus", "setting": "West Nile Virus", "result": "no activity"}, {"measurement": "antiviral activity against ZIKV", "setting": "ZIKV [1]", "result": "did not display antiviral activity"}]}, {"smiles": "CC(C)OC(=O)[C@H](C)N[P@](=O)(OCC1=C[C@H](O)[C@H](n2ccc(=O)[nH]c2=O)O1)Oc1ccccc1", "note": "[HLB-0532254]", "values": [{"measurement": "decrease in cell viability", "setting": "Vero cells", "result": 10, "unit": "%"}, {"measurement": "decrease in cell viability", "setting": "HUH7 cells", "result": 25, "unit": "%"}, {"measurement": "antiviral activity against West Nile Virus", "setting": "West Nile Virus", "result": "no activity; also recorded: not active"}, {"measurement": "antiviral activity against ZIKV", "setting": "ZIKV [1]; at 1.0 mM", "result": "did not display antiviral activity"}, {"measurement": "antiviral activity against ZIKV", "setting": "ZIKV [1]; dosed at 0.1 mM", "result": "potent activity"}]}, {"smiles": "CC(C)OC(=O)[C@H](C)N[P@](=O)(OCC1=C[C@H](O)[C@H](n2cnc3c(=O)[nH]cnc32)O1)Oc1ccccc1", "note": "[HLB-0535083]", "values": [{"measurement": "change in cell viability", "setting": "Vero cells", "result": "No change in cell viability"}, {"measurement": "change in cell viability", "setting": "HUH7 cells", "result": "No change in cell viability"}, {"measurement": "antiviral activity against West Nile Virus", "setting": "West Nile Virus", "result": "no activity"}, {"measurement": "antiviral activity against ZIKV", "setting": "ZIKV [1]", "result": "no activity"}]}, {"smiles": "CC(C)OC(=O)[C@H](C)N[P@](=O)(OCC1=C[C@H](O)[C@H](n2ccc(N)nc2=O)O1)Oc1ccccc1", "note": "[HLB-0532247]", "values": [{"measurement": "cytotoxicity / change in cell viability", "setting": "Vero cells", "result": "did not show any cytotoxicity"}, {"measurement": "cytotoxicity / change in cell viability", "setting": "HUH7 cells", "result": "did not show any cytotoxicity"}, {"measurement": "antiviral activity against ZIKV", "setting": "ZIKV [2]; HUH7 cells", "result": "potent antiviral activity"}, {"measurement": "antiviral activity against ZIKV", "setting": "ZIKV [2]; Vero cells", "result": "potent antiviral activity"}, {"measurement": "antiviral activity against WNV", "setting": "WNV; HUH7 cells", "result": "potent antiviral activity"}]}, {"smiles": "Nc1ccn([C@@H]2OC(COP(=O)(O)OP(=O)(O)OP(=O)(O)O)=C[C@H]2O)c(=O)n1", "note": "[ddhCTP, 3′-Deoxy-3′,4′-didehydro-cytidine-5′-triphosphate]", "values": [{"measurement": "inhibition of DENV polymerase", "setting": "[3]", "result": "inhibits"}, {"measurement": "inhibition of WNV polymerase", "setting": "polymerase of WNV", "result": "inhibits"}, {"measurement": "inhibition of ZIKV polymerase", "setting": "polymerase of ZIKV", "result": "inhibits"}, {"measurement": "inhibition of HCV polymerase", "setting": "[4]", "result": "inhibits"}, {"measurement": "inhibition of PV polymerase", "setting": "polymerase of polio (PV)", "result": "weak inhibition"}, {"measurement": "inhibition of SARS-CoV-2 polymerase", "setting": "polymerase of SARS-CoV-2", "result": "inhibits"}]}]}
